Measured values as given in patent publication US12319664B2, “Herbicidally active 3-phenylisoxazoline-5-carboxamides of cyclopentenylcarboxylic acid derivatives” (Bayer Aktiengesellschaft, priority 2018, dated 2025).

Legend:
SETVI = test: Post-emergence herbicidal action against SETVI; assay type: in vivo, Setaria viridis; conditions: application rate 80 g/ha, rated visually after about 3 weeks
Experimental: (§1) [table] 2. Post-emergence herbicidal action against harmful plants and crop plant compatibility Seeds of monocotyledonous and dicotyledonous weeds and crop plants are placed in sandy loam in plastic or wood-fibre pots, covered with soil and cultivated in a greenhouse under controlled growth conditions. 2 to 3 weeks after sowing, the test plants are treated at the one-leaf stage. The compounds of the invention, formulated in the form of wettable powders (WP) or as emulsion concentrates (EC), are then sprayed onto the green parts of the plants as aqueous suspension or emulsion with addition of 0.5% additive at a water application rate of 600 l/ha (converted). After the test plants have been kept in the greenhouse under optimum growth conditions for about 3 weeks, the activity of the preparations is rated visually in comparison to untreated controls. For example, 100% activity=the plants have died, 0% activity=like control plants.

LOLRI = test: Post-emergence herbicidal action against LOLRI; assay type: in vivo, Lolium rigidum; conditions: application rate 80 g/ha, rated visually after about 3 weeks
Experimental: as §1

HORMU = test: Post-emergence herbicidal action against HORMU; assay type: in vivo, Hordeum murinum; conditions: application rate 80 g/ha
Experimental: as §1

AVEFA = test: Post-emergence herbicidal action against AVEFA; assay type: in vivo, Avena fatua; conditions: application rate 80 g/ha, rated visually after about 3 weeks
Experimental: as §1

ABUTH = test: Post-emergence herbicidal action against ABUTH; assay type: in vivo, Abutilon theophrasti; conditions: application rate 80 g/ha, rated visually about 3 weeks after treatment
Experimental: as §1

STEME = test: Post-emergence herbicidal action against STEME; assay type: in vivo, Stellaria media; conditions: application rate 80 g/ha, rated visually about 3 weeks after treatment
Experimental: as §1

POLCO = test: Post-emergence herbicidal action against POLCO; assay type: in vivo, Polygonum convolvulus; conditions: application rate 80 g/ha, rated visually about 3 weeks after treatment
Experimental: as §1

VERPE = test: Post-emergence herbicidal action against VERPE; assay type: in vivo, Veronica persica; conditions: application rate 80 g/ha
Experimental: as §1

ALOMY = test: Post-emergence herbicidal action against ALOMY; assay type: in vivo, Alopecurus myosuroides; conditions: application rate 80 g/ha, rated visually after about 3 weeks
Experimental: as §1

ECHCG = test: Post-emergence herbicidal action against ECHCG; assay type: in vivo, Echinochloa crus-galli; conditions: application rate 80 g/ha, rated visually after about 3 weeks
Experimental: as §1

AMARE = test: Post-emergence herbicidal action against AMARE; assay type: in vivo, Amaranthus retroflexus; conditions: application rate 80 g/ha, rated visually about 3 weeks after treatment
Experimental: as §1

PHBPU = test: Post-emergence herbicidal action against PHBPU; assay type: in vivo, Pharbitis purpurea; conditions: application rate 80 g/ha, rated visually about 3 weeks after treatment
Experimental: as §1

C=CC1(C(=O)NC2C=CC(C(=O)OC(C)C)C2)CC(c2cc(F)cc(F)c2)=NO1 (mixture of isomers) [Example I-034]
Herbicidal action against [%] SETVI (SETVI): 80% | Herbicidal action against [%] LOLRI (LOLRI): 100% | Herbicidal action against [%] HORMU (HORMU): 90% | Herbicidal action against [%] AVEFA (AVEFA): 90% | Herbicidal action against [%] ABUTH (ABUTH): 80% | Herbicidal action against [%] STEME (STEME): 90% | Herbicidal action against [%] POLCO (POLCO): 80% | Herbicidal action against [%] VERPE (VERPE): 90% | Herbicidal action against [%] ALOMY (ALOMY): 90% | Herbicidal action against [%] ECHCG (ECHCG): 80%

C=CC1(C(=O)NC2C=CC(C(=O)OC)C2)CC(c2cc(F)cc(F)c2)=NO1 (mixture of isomers) [Example I-035]
Herbicidal action against [%] SETVI (SETVI): 80% | Herbicidal action against [%] LOLRI (LOLRI): 90% | Herbicidal action against [%] HORMU (HORMU): 90% | Herbicidal action against [%] AVEFA (AVEFA): 90% | Herbicidal action against [%] ABUTH (ABUTH): 80% | Herbicidal action against [%] STEME (STEME): 90% | Herbicidal action against [%] POLCO (POLCO): 80% | Herbicidal action against [%] AMARE (AMARE): 80% | Herbicidal action against [%] VERPE (VERPE): 80% | Herbicidal action against [%] ALOMY (ALOMY): 90% | Herbicidal action against [%] ECHCG (ECHCG): 90%

CCOC(=O)C1C=CC(NC(=O)C2(C(F)(F)F)CC(c3cc(OC)cc(OC)c3)=NO2)C1 (mixture of isomers) [Example I-043]
Herbicidal action against [%] SETVI (SETVI): 80% | Herbicidal action against [%] LOLRI (LOLRI): 90% | Herbicidal action against [%] HORMU (HORMU): 80% | Herbicidal action against [%] AVEFA (AVEFA): 90% | Herbicidal action against [%] ABUTH (ABUTH): 80% | Herbicidal action against [%] STEME (STEME): 80% | Herbicidal action against [%] AMARE (AMARE): 80% | Herbicidal action against [%] VERPE (VERPE): 80% | Herbicidal action against [%] ALOMY (ALOMY): 90% | Herbicidal action against [%] ECHCG (ECHCG): 80%

Cc1cc(C2=NOC(C(=O)NC3C=CC(C(=O)OCCCl)C3)(C(F)(F)F)C2)cc(C(F)(F)F)c1 (mixture of isomers) [Example I-049]
Herbicidal action against [%] LOLRI (LOLRI): 90% | Herbicidal action against [%] PHBPU (PHBPU): 90% | Herbicidal action against [%] HORMU (HORMU): 90% | Herbicidal action against [%] AVEFA (AVEFA): 90% | Herbicidal action against [%] AMARE (AMARE): 90% | Herbicidal action against [%] VERPE (VERPE): 80% | Herbicidal action against [%] ALOMY (ALOMY): 90%

Cc1cc(C2=NOC(C(=O)NC3C=CC(C(=O)OCC(F)(F)F)C3)(C(F)(F)F)C2)cc(C(F)(F)F)c1 (mixture of isomers) [Example I-050]
Herbicidal action against [%] HORMU (HORMU): 90% | Herbicidal action against [%] AVEFA (AVEFA): 90% | Herbicidal action against [%] ABUTH (ABUTH): 80% | Herbicidal action against [%] AMARE (AMARE): 80% | Herbicidal action against [%] ALOMY (ALOMY): 90%

CCOC(=O)C1C=CC(NC(=O)C2(C)CC(c3cccc(C#N)c3)=NO2)C1 (mixture of isomers) [Example I-069]
Herbicidal action against [%] SETVI (SETVI): 80% | Herbicidal action against [%] LOLRI (LOLRI): 90% | Herbicidal action against [%] HORMU (HORMU): 90% | Herbicidal action against [%] AVEFA (AVEFA): 90% | Herbicidal action against [%] ABUTH (ABUTH): 80% | Herbicidal action against [%] STEME (STEME): 80% | Herbicidal action against [%] POLCO (POLCO): 80% | Herbicidal action against [%] AMARE (AMARE): 80% | Herbicidal action against [%] VERPE (VERPE): 80% | Herbicidal action against [%] ALOMY (ALOMY): 90% | Herbicidal action against [%] ECHCG (ECHCG): 90%

CC1(C(=O)NC2C=CC(C(=O)OCCCl)C2)CC(c2cccc(C#N)c2)=NO1 (mixture of isomers) [Example I-079]
Herbicidal action against [%] SETVI (SETVI): 90% | Herbicidal action against [%] HORMU (HORMU): 100% | Herbicidal action against [%] AVEFA (AVEFA): 90% | Herbicidal action against [%] ABUTH (ABUTH): 80% | Herbicidal action against [%] STEME (STEME): 80% | Herbicidal action against [%] POLCO (POLCO): 90% | Herbicidal action against [%] AMARE (AMARE): 90% | Herbicidal action against [%] VERPE (VERPE): 90% | Herbicidal action against [%] ALOMY (ALOMY): 90% | Herbicidal action against [%] ECHCG (ECHCG): 80%

COCCOC(=O)C1C=CC(NC(=O)C2(C)CC(c3cccc(C#N)c3)=NO2)C1 (mixture of isomers) [Example I-081]
Herbicidal action against [%] SETVI (SETVI): 80% | Herbicidal action against [%] LOLRI (LOLRI): 100% | Herbicidal action against [%] HORMU (HORMU): 100% | Herbicidal action against [%] AVEFA (AVEFA): 100% | Herbicidal action against [%] ABUTH (ABUTH): 80% | Herbicidal action against [%] STEME (STEME): 90% | Herbicidal action against [%] POLCO (POLCO): 90% | Herbicidal action against [%] AMARE (AMARE): 80% | Herbicidal action against [%] VERPE (VERPE): 80%

CC1(C(=O)NC2C=CC(C(=O)NC(C)(C)C(F)(F)F)C2)CC(c2cc(F)cc(F)c2)=NO1 (mixture of isomers) [II-08]
Herbicidal action against [%] PHBPU (PHBPU): 90% | Herbicidal action against [%] STEME (STEME): 90% | Herbicidal action against [%] VERPE (VERPE): 80% | Herbicidal action against [%] ALOMY (ALOMY): 80%
